Test results published in patent US9688627B2, “Lactam compounds as EP4 receptor-selective agonists for use in the treatment of EP4-mediated diseases and conditions” (Cayman Chemical Company, Inc., priority 2013, dated 2017).

How the values were obtained:
rat EP4 receptor [1] = target: T1, rat EP4 receptor (Rattus norvegicus, UniProt P43114); test: SEAP activity assay on EP4 STEP plate; assay type: cell-based; conditions: SEAP luminescence, 6-8 hours of stimulation; read-out: STEP cell functional assay EC50 SEAP/EP4
T1 construct: cells seeded on STEP plates
T1 sequence (P43114 whole entry): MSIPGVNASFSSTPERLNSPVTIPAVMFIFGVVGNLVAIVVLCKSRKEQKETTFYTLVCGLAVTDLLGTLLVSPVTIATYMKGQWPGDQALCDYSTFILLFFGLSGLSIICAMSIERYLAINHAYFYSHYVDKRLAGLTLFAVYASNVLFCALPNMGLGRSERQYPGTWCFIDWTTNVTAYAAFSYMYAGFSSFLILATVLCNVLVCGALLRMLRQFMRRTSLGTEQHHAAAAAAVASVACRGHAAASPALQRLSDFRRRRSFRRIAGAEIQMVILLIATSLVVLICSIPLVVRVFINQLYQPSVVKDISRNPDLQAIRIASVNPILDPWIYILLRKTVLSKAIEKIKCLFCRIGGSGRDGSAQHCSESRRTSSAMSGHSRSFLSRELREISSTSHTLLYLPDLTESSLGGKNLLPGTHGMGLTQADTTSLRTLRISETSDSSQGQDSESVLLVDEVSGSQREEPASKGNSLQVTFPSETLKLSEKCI
Text: (§1) 2. […] In addition each concentration had triplicates. […] 4. […] Cover the plate with the lid. […] 6. […] 7. […] 8.

rat EP2 receptor = target: T2, rat EP2 receptor (Rattus norvegicus, UniProt Q62928); test: SEAP activity assay on EP2 STEP plate; assay type: cell-based; conditions: SEAP luminescence, 6-8 hours of stimulation; read-out: STEP cell functional assay EC50 SEAP/EP2
T2 construct: cells seeded on STEP plates
T2 sequence (Q62928 whole entry): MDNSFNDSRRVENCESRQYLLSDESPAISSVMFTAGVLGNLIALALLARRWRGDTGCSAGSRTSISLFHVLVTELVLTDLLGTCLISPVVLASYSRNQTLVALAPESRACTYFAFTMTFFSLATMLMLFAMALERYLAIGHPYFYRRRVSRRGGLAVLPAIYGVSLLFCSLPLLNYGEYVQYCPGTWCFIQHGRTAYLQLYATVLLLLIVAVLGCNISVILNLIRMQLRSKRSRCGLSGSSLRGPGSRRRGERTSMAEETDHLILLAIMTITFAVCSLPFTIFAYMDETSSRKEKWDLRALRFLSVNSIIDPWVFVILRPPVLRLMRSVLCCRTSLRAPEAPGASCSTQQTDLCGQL
Text: as §1

rat EP4 receptor [2] = target: T1, rat EP4 receptor; test: cAMP level assay on EP4 STEP plate; assay type: cell-based; conditions: cAMP by ELISA, 30 minutes, 500 μM IBMX; read-out: STEP cell functional assay EC50 cAMP/EP4
Text: Functional Cellular Assays (STEP Plate Format)
Procedure of cAMP Assay for EP2/EP4 Agonist
3. […] In addition each concentration had triplicates.
6. Aspirate the supernatant.

[3] = target: T3, Human Prostanoid EP4 Receptor (Homo sapiens, UniProt P35408); test: Radioligand binding assay, agonist site of human prostanoid EP4 receptor in transfected HEK-293 cells; conditions: for IC50: read-out: hEP4 receptor binding IC50; for Ki: read-out: hEP4 receptor binding Ki
T3 construct: expressed in transfected cells; host or cells: HEK-293 cells (cell membrane homogenates)
T3 sequence (P35408 whole entry): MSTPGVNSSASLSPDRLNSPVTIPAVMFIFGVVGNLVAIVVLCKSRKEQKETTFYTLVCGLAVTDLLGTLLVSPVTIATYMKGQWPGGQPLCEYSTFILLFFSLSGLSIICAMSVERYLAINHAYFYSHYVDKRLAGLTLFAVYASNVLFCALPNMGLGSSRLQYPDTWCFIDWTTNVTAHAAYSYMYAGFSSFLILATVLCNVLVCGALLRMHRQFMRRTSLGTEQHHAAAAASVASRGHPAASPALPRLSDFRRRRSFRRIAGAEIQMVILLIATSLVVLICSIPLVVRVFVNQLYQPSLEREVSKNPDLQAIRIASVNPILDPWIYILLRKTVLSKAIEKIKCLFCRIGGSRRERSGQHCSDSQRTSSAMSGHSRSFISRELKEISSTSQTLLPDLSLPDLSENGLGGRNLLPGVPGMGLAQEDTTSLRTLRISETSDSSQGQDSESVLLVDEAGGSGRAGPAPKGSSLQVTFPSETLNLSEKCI
Procedure: Radioligand Binding Assay for the Evaluation of the Affinity of Compounds for the Agonist Site of the Human Prostanoid EP4 Receptor in Transfected HEK-293 Cells
Following incubation, the samples are filtered rapidly under vacuum through glass fiber filters (GF/B, Packard) presoaked with 0.3% PEI and rinsed several times with ice-cold 50 mM Tris-HCl using a 96-sample cell harvester (Unifilter, Packard). The filters are dried then counted for radioactivity in a scintillation counter (Topcount, Packard) using a scintillation cocktail (Microscint 0, Packard).

calvarial bone defect = test: Rat calvarial defect model; assay type: in vivo, female Sprague Dawley rats; conditions: 3 mg/ml in calcium phosphate cement/demineralized bone matrix, eight weeks, values only in FIG. 1
Procedure: The rat calvarial defect model is a widely used model through which the ability of a treatment agent to induce bone formation is assessed (Aghaloo et al., The effect of NELL1 and bone morphogenetic protein-2 on calvarial bone regeneration, J. Oral Maxillofac. Surg., 2010, 68, 300-308; Mark et al., Repair of calvarial nonunions by osteogenin, a bone-inductive protein, Plast. Reconstr. Surg., 1990, 86, 623-30). Bone defects are created by removal of bone from the cranium of female Sprague Dawley rats by a bone trephine (cranial defect). Cranial defects are 2.6 mm in diameter and the cranium approximately 1 mm thick. A matrix of approximately 2 mm thickness is applied to the defect. Thus the dosing volume for each defect is calculated as π*r^2*matrix thickness=3.14*1.3^2*2=10.61 μl and rounded to 11 μl for purposes of dose calculation. Example 2E is delivered set inside calcium phosphate cement that, after loading with drug and setting, is ground to a fine powder and suspended in demineralized bone matrix at a ratio of 1:8 (weight/volume). Example 2E is tested at one dose of 3 mg/ml with five rats in the test group. […] The area measured at eight weeks was compared to the area of the original defect and the degree of repair calculated by the following formula: (original area-current area)/original area*100 The mean repair for each group after eight weeks of treatment is shown in the FIG. 1.

| SMILES | EC50 (rat EP4 receptor [1]) [nM] | EC50 (rat EP2 receptor) [nM] | melting point [°C] | EC50 (rat EP4 receptor [2]) [nM] | IC50 [3] [nM] | Ki [3] [nM] | Healing of a calvarial bone defect (calvarial bone defect) |
| --- | --- | --- | --- | --- | --- | --- | --- |
| CC#CC[C@H](C)[C@H](O)/C=C/[C@H]1CCC(=O)N1CCCCCCC(=O)O [Example 1E, 7-((R)-2-((3S,4S,E)-3-hydroxy-4-methyloct-1-en-6-yn-1-yl)-5-oxopyrrolidin-1-yl)heptanoic acid] | 0.57 | 800 | 113 to 114 | 2.98 | 3.9 | 1.5 | – |
| CCC#CC[C@H](C)[C@H](O)/C=C/[C@H]1CCC(=O)N1CCCCCCC(=O)O [Example 2E, 7-((R)-2-((3S,4S,E)-3-hydroxy-4-methylnon-1-en-6-yn-1-yl)-5-oxopyrrolidin-1-yl)heptanoic acid] | 0.19 ± 0.07 | – | – | 0.96 ± 0.46 | 3 | 1.1 | Accelerated Healing |
